Results: patent publication US11492335B2, “Aryl or heteroaryl triazolone derivatives or salts thereof, or pharmaceutical compositions comprising the same” (YUHAN CORPORATION, priority 2018, dated 2022)
Counter-ions that a name gives are not always drawn. Like-named read-outs stand apart in the source and are kept apart here.

How the values were obtained:
recombinant human VAP-1 = target: T1, recombinant human VAP-1 (Homo sapiens, UniProt Q16853); assay: Activity on recombinant human VAP-1, Amplex Red HRP-coupled hydrogen peroxide assay, benzylamine substrate; assay type: biochemical; conditions: recombinant human VAP-1, benzylamine substrate, read-out: Inhibitory Activity (IC50, nM) human VAP-1
T1 construct: purchased R&D systems
T1 sequence (Q16853 1-763): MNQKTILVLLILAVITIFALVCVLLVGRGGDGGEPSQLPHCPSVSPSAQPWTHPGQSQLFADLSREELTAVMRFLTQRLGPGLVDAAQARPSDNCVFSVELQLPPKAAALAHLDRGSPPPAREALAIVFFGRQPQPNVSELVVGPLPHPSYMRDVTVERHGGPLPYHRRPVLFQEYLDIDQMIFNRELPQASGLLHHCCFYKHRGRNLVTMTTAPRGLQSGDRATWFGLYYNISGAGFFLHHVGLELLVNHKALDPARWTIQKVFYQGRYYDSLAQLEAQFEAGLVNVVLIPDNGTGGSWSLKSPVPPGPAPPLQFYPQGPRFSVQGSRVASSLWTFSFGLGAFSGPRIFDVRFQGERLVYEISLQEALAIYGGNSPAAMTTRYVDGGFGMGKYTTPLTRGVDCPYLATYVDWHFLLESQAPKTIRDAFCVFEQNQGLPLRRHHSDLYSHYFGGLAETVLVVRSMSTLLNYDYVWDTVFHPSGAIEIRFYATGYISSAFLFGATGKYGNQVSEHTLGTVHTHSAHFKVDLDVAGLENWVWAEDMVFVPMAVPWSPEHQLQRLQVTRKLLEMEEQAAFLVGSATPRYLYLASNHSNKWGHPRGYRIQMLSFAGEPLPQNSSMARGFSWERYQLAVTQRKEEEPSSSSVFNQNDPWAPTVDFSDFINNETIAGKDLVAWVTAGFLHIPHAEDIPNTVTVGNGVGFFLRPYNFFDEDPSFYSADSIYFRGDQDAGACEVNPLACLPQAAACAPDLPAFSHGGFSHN
Method: (§1) The compounds according to the present technology were evaluated in terms of activity on recombinant human VAP-1 (R&D systems) by measuring the level of hydrogen peroxide in horseradish peroxidase (HRP)-coupled reaction using Amplex Red Hydrogen Peroxide Assay Kit (Molecular Probes, Invitrogen, USA). The experiment was carried out at room temperature using benzylamine as a substrate. In the HRP-coupled reaction, hydrogen peroxide oxidation of 10-acetyl-3,7-dihydroxyphenoxazine (Amplex Red reagent) produces resorufin, which is a highly fluorescent compound. Briefly, the test compound was dissolved in dimethyl sulfoxide (DMSO) at a concentration of 20 mM. The dose-response assessment was made by 1:3 serial dilution in DMSO, thereby creating an 8 point curve. The concentration of the upper part was controlled according to the efficacy of the compounds, followed by dilution with a reaction buffer solution to obtain a final DMSO concentration less than 1%. To each well of a 96 black well plate, human VAP-1 purified in 50 mM sodium phosphate buffer solution (pH7.4) was added. The test compounds dissolved in DMSO were incubated with the human VAP-1 enzymes at 37° C. for 30 minutes. After 30-minute incubation, each well is added with a reaction mixture containing 200 uM Amplex Red reagent prepared from 50 mM sodium phosphate buffer solution (pH 7.4), 1 mM benzylamine, and 1 U/mL HRP. Fluorescence intensity was measured at several time points during 1-2 hours using a microplate reader (Flexstation3, Molecular Devices) under the wavelength condition exciting at 544 nm and reading the emission at 590 nm. The inhibitory effect of the compounds was measured as a decrease (%) in the signal rate as compared to the control group without any inhibitor (only diluted DMSO). Data was fixed to a logistic model with four variables and IC50 value was calculated using GraphPad Prism program.

[1] = target: T2, recombinant human DAO (diamine oxidase) (Homo sapiens, UniProt P19801); assay: Activity on recombinant human DAO, Amplex Red method, 1 mM putrescine substrate; assay type: biochemical; conditions: recombinant human DAO, read-out: Inhibitory Activity (IC50, nM) DAO
T2 construct: purchased R&D systems
T2 sequence (P19801 20-751): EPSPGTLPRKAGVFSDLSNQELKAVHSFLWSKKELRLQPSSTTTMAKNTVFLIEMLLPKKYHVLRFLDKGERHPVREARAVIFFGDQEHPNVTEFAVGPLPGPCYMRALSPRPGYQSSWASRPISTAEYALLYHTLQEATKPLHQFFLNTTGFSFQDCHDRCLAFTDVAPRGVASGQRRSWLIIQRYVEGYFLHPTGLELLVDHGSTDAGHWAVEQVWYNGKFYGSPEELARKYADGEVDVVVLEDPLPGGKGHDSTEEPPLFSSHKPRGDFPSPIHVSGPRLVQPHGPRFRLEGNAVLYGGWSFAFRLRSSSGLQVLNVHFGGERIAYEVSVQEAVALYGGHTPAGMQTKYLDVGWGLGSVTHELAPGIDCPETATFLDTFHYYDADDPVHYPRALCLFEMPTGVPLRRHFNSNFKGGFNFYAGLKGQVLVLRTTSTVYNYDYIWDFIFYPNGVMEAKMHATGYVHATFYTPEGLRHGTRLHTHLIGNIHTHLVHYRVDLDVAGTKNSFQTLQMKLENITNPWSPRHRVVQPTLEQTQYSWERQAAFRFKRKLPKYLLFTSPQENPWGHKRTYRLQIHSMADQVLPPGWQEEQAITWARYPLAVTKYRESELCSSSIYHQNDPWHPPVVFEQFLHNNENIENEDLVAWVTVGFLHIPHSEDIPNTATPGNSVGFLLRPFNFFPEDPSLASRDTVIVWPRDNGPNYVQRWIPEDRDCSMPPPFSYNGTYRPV
Method: as §1
In addition, the compounds according to the present technology were evaluated in terms of activity on a recombinant human MAO-A (monoamine oxidase-A, Sigma-Aldrich) and a recombinant human MAO-B (monoamine oxidase-B, Sigma-Aldrich) by using as substrates, 0.5 mM tyramine and 1 mM benzylamine, respectively, with a method similar to the activity evaluation method for recombinant human VAP-1. The compounds according to the present technology were also evaluated in terms of activity on a recombinant human DAO (diamine oxidase, R&D systems) by using as a substrate 1 mM putrescine with a method similar to the activity evaluation method for recombinant human VAP-1.

[2] = 1 mM putrescine, * = between 10 and 100 nM, ** = between 300 and 1000 nM

Question: How did the IC50 (recombinant human VAP-1) turn out when `NC/C(=C\F)Cn1ncn(-c2ncc(-c3cccc(-c4nnn[nH]4)c3)s2)c1=O` [Example 230, 2-[(2E)-2-(aminomethyl)-3-fluoroprop-2-en-1-yl]-4-{5-[3-(1H-tetrazol-5-yl)phenyl]-1,3-thiazol-2-yl}-2,4-dihydro-3H-1,2,4-triazol-3-one] was run?
Answer: The IC50 was 0.53 nM.

Question: And the IC50 ([1]; 1 mM putrescine substrate)?
Answer: The IC50 was 2.7 nM.

Question: Which results are given for `Cc1cc(Br)ncc1-n1cnn(C/C(=C/F)CN)c1=O` [Example 28, 2-[(2E)-2-(aminomethyl)-3-fluoroprop-2-en-1-yl]-4-(6-bromo-4-methylpyridin-3-yl)-2,4-dihydro-3H-1,2,4-triazol-3-one hydrochloride]?
Answer: IC50 (recombinant human VAP-1; 30 min preincubation at 37° C.): 45 nM; IC50 [1, 2]: 1100 nM

Question: Which IC50 (recombinant human VAP-1; 30 min preincubation at 37° C.) does the source give for `Cc1cc(-c2ccc(S(C)(=O)=O)cc2)ncc1-n1cnn(C/C(=C/F)CN)c1=O` [Example 119, 2-[(2E)-2-(aminomethyl)-3-fluoroprop-2-en-1-yl]-4-{4-methyl-6-[4-(methylsulfonyl)phenyl]pyridin-3-yl}-2,4-dihydro-3H-1,2,4-triazol-3-one] here?
Answer: Its IC50 is 0.94 nM.

Question: And the IC50 [1, 2]?
Answer: Its IC50 is less than 100 nM.

Question: With `COc1cc(N2CCOCC2)c(Br)cc1-n1cnn(C/C(=C/F)CN)c1=O` [Example 47, 2-[(2E)-2-(aminomethyl)-3-fluoroprop-2-en-1-yl]-4-[5-bromo-2-methoxy-4-(morpholin-4-yl)phenyl]-2,4-dihydro-3H-1,2,4-triazol-3-one hydrochloride] as the compound, how does the IC50 (recombinant human VAP-1; 30 min preincubation at 37° C.) read?
Answer: Its IC50 is 2.8 nM.

Question: What about the IC50 [1, 2] of the same compound?
Answer: Its IC50 is 1200 nM.

Question: For `Cc1c(-c2ccc3nonc3c2)cccc1-n1cnn(C/C(=C/F)CN)c1=O` [Example 113, 2-[(2E)-2-(aminomethyl)-3-fluoroprop-2-en-1-yl]-4-[3-(2,1,3-benzooxadiazol-5-yl)-2-methylphenyl]-2,4-dihydro-3H-1,2,4-triazol-3-one], which IC50 (recombinant human VAP-1; 30 min preincubation at 37° C.) is on record?
Answer: Its IC50 is 2.3 nM.

Question: And the IC50 [1, 2]?
Answer: Its IC50 is less than 1000 nM.

Question: With `Cc1cc(-c2ccc(-c3nnc[nH]3)cc2)cnc1-n1cnn(C/C(=C\F)CN)c1=O` [Example 135, 2-[(2Z)-2-(aminomethyl)-3-fluoroprop-2-en-1-yl]-4-{3-methyl-5-[4-(4H-1,2,4-triazol-3-yl)phenyl]pyridin-2-yl}-2,4-dihydro-3H-1,2,4-triazol-3-one] as the compound, how does the IC50 (recombinant human VAP-1; 30 min preincubation at 37° C.) read?
Answer: The IC50 was 3.2 nM.

Question: What about the IC50 [1, 2] of the same compound?
Answer: Its IC50 is 520 nM.

Question: With `Cc1cc(Br)cnc1-n1cnn(C/C(=C\F)CN)c1=O` [Example 31, 2-[(2Z)-2-(aminomethyl)-3-fluoroprop-2-en-1-yl]-4-(5-bromo-3-methylpyridin-2-yl)-2,4-dihydro-3H-1,2,4-triazol-3-one hydrochloride] as the compound, how does the IC50 (recombinant human VAP-1; 30 min preincubation at 37° C.) read?
Answer: Its IC50 is 47 nM.

Question: Which results are given for `NC/C(=C\F)Cn1ncn(-c2cccc(-c3cncc4ccccc34)c2)c1=O` [Example 104, 2-[(2E)-2-(aminomethyl)-3-fluoroprop-2-en-1-yl]-4-[3-(isoquinolin-4-yl)phenyl]-2,4-dihydro-3H-1,2,4-triazol-3-one hydrochloride]?
Answer: IC50 (recombinant human VAP-1; 30 min preincubation at 37° C.): 3 nM; IC50 [1, 2]: 54 nM

Question: Which IC50 (recombinant human VAP-1) does the source give for `NC/C(=C\F)Cn1ncn(-c2cccc(-c3ccc(-c4noc(=O)[nH]4)cc3)n2)c1=O` [Example 182, 3-[4-(6-{1-[(2E)-2-(aminomethyl)-3-fluoroprop-2-en-1-yl]-5-oxo-1,5-dihydro-4H-1,2,4-triazol-4-yl}pyridin-2-yl)phenyl]-1,2,4-oxadiazol-5(4H)-one hydrochloride] here?
Answer: Its IC50 is 23 nM.

Question: How did the IC50 (recombinant human VAP-1; 30 min preincubation at 37° C.) turn out when `Cc1cc(N2CCNCC2)cnc1-n1cnn(C/C(=C/F)CN)c1=O` [Example 131, 2-[(2E)-2-(aminomethyl)-3-fluoroprop-2-en-1-yl]-4-[3-methyl-5-(piperazin-1-yl)pyridin-2-yl]-2,4-dihydro-3H-1,2,4-triazol-3-one] was run?
Answer: The IC50 was 8.2 nM.

Question: And the IC50 [1, 2]?
Answer: The IC50 was 4200 nM.

Question: With `Cc1cc(-n2cnn(C/C(=C\F)CN)c2=O)ncc1Br` [Example 33, 2-[(2Z)-2-(aminomethyl)-3-fluoroprop-2-en-1-yl]-4-(5-bromo-4-methylpyridin-2-yl)-2,4-dihydro-3H-1,2,4-triazol-3-one hydrochloride] as the compound, how does the IC50 (recombinant human VAP-1; 30 min preincubation at 37° C.) read?
Answer: The IC50 was 31 nM.

Question: Which IC50 (recombinant human VAP-1; 30 min preincubation at 37° C.) does the source give for `NC/C(=C/F)Cn1ncn(-c2ccc(Br)cc2)c1=O` [Example 1, 2-[(2Z)-2-(aminomethyl)-3-fluoroprop-2-en-1-yl]-4-(4-bromophenyl)-2,4-dihydro-3H-1,2,4-triazol-3-one] here?
Answer: Its IC50 is 17 nM.
